{
  "source": "ChEMBL document CHEMBL5465560",
  "about": "“Selectivity Literature for EUbOPEN Chemogenomic Library” (2024)",
  "key": {"[1]": {"biological_target": "Interferon-induced, double-stranded RNA-activated protein kinase (Homo sapiens) (UniProt P19525)", "sequence (P19525 whole entry)": "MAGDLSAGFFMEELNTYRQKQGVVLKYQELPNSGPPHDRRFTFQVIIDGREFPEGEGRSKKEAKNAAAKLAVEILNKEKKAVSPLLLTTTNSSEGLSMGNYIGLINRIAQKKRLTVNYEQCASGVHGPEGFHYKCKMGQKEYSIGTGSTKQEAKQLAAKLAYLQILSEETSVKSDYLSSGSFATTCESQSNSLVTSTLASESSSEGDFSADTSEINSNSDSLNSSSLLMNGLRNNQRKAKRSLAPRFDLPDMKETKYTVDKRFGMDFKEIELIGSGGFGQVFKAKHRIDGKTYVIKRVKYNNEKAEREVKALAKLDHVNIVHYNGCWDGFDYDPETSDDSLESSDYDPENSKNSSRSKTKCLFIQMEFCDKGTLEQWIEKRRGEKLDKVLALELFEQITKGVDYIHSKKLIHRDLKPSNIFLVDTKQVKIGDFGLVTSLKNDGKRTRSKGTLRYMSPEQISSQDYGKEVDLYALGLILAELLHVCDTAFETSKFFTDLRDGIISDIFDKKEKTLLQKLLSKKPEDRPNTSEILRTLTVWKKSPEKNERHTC", "experiment": "Selectivity interaction (LanthaScreen Eu Kinase Binding Assay) EUB0001632a EIF2AK2", "conditions": "at 10 µM"}, "[2]": {"biological_target": "Serine/threonine-protein kinase PAK 4 (Homo sapiens, UniProt O96013)", "sequence (O96013 whole entry, looked up)": "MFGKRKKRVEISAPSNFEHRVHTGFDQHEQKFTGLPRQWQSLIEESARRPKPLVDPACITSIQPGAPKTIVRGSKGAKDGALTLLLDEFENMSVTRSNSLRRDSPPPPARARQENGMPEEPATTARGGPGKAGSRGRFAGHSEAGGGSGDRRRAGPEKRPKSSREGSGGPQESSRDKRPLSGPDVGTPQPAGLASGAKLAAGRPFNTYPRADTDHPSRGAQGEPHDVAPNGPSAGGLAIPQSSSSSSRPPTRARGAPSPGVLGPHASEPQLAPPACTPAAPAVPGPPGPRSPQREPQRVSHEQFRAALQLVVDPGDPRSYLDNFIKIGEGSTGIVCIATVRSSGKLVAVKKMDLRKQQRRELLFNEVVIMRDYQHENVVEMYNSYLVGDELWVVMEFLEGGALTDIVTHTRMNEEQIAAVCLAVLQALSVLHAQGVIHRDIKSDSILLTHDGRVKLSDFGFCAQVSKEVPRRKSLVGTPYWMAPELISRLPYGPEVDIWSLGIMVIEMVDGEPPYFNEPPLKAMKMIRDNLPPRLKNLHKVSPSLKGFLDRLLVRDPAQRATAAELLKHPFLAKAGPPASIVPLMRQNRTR", "experiment": "Selectivity interaction (KinomeScan (DiscoverX)) EUB0000607a PAK4", "conditions": "at 10 µM"}, "[3]": {"biological_target": "T1, Serine/threonine-protein kinase TAO2 (Homo sapiens) (UniProt Q9UL54)", "T1 sequence (whole entry)": "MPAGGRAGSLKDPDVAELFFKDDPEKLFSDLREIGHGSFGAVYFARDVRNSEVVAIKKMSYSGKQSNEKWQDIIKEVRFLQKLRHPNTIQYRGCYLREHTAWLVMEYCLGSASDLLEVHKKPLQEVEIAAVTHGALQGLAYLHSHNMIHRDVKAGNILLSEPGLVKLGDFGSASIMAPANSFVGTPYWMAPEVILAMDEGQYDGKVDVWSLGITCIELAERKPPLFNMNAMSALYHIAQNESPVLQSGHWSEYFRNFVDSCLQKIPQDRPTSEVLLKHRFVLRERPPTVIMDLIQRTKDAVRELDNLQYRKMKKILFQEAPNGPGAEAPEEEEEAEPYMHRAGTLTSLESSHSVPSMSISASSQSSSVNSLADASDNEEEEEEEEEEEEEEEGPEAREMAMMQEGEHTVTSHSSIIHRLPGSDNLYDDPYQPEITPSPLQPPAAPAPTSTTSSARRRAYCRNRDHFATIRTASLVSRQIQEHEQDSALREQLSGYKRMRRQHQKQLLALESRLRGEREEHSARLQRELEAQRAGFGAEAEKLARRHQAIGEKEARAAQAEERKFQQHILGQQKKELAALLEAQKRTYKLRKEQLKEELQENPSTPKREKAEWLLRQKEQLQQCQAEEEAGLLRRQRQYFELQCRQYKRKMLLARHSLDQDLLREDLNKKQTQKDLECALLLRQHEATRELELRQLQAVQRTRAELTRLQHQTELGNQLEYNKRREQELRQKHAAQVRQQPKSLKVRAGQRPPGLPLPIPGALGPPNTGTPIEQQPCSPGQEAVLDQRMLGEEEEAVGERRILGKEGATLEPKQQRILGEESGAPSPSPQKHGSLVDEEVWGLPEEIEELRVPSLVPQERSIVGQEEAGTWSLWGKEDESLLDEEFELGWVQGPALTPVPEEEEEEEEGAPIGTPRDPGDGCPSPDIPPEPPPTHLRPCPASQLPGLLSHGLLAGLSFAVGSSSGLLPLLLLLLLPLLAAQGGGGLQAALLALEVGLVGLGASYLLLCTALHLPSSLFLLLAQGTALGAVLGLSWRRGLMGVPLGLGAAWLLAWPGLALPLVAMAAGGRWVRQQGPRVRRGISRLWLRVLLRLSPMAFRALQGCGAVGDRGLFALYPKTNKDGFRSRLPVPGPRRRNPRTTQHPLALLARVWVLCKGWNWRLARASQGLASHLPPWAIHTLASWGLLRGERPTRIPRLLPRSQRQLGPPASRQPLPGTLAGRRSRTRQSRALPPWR", "experiment": "Selectivity interaction (ActivX KiNativ screen (kinase selectivity in THP-1 cell lysates)) EUB0000639a TAOK2", "assay_type": "subcellular", "conditions": "lysate"}, "[4]": {"biological_target": "Histone-lysine N-methyltransferase, H3 lysine-36 specific (Homo sapiens) (UniProt Q96L73)", "sequence (Q96L73 whole entry)": "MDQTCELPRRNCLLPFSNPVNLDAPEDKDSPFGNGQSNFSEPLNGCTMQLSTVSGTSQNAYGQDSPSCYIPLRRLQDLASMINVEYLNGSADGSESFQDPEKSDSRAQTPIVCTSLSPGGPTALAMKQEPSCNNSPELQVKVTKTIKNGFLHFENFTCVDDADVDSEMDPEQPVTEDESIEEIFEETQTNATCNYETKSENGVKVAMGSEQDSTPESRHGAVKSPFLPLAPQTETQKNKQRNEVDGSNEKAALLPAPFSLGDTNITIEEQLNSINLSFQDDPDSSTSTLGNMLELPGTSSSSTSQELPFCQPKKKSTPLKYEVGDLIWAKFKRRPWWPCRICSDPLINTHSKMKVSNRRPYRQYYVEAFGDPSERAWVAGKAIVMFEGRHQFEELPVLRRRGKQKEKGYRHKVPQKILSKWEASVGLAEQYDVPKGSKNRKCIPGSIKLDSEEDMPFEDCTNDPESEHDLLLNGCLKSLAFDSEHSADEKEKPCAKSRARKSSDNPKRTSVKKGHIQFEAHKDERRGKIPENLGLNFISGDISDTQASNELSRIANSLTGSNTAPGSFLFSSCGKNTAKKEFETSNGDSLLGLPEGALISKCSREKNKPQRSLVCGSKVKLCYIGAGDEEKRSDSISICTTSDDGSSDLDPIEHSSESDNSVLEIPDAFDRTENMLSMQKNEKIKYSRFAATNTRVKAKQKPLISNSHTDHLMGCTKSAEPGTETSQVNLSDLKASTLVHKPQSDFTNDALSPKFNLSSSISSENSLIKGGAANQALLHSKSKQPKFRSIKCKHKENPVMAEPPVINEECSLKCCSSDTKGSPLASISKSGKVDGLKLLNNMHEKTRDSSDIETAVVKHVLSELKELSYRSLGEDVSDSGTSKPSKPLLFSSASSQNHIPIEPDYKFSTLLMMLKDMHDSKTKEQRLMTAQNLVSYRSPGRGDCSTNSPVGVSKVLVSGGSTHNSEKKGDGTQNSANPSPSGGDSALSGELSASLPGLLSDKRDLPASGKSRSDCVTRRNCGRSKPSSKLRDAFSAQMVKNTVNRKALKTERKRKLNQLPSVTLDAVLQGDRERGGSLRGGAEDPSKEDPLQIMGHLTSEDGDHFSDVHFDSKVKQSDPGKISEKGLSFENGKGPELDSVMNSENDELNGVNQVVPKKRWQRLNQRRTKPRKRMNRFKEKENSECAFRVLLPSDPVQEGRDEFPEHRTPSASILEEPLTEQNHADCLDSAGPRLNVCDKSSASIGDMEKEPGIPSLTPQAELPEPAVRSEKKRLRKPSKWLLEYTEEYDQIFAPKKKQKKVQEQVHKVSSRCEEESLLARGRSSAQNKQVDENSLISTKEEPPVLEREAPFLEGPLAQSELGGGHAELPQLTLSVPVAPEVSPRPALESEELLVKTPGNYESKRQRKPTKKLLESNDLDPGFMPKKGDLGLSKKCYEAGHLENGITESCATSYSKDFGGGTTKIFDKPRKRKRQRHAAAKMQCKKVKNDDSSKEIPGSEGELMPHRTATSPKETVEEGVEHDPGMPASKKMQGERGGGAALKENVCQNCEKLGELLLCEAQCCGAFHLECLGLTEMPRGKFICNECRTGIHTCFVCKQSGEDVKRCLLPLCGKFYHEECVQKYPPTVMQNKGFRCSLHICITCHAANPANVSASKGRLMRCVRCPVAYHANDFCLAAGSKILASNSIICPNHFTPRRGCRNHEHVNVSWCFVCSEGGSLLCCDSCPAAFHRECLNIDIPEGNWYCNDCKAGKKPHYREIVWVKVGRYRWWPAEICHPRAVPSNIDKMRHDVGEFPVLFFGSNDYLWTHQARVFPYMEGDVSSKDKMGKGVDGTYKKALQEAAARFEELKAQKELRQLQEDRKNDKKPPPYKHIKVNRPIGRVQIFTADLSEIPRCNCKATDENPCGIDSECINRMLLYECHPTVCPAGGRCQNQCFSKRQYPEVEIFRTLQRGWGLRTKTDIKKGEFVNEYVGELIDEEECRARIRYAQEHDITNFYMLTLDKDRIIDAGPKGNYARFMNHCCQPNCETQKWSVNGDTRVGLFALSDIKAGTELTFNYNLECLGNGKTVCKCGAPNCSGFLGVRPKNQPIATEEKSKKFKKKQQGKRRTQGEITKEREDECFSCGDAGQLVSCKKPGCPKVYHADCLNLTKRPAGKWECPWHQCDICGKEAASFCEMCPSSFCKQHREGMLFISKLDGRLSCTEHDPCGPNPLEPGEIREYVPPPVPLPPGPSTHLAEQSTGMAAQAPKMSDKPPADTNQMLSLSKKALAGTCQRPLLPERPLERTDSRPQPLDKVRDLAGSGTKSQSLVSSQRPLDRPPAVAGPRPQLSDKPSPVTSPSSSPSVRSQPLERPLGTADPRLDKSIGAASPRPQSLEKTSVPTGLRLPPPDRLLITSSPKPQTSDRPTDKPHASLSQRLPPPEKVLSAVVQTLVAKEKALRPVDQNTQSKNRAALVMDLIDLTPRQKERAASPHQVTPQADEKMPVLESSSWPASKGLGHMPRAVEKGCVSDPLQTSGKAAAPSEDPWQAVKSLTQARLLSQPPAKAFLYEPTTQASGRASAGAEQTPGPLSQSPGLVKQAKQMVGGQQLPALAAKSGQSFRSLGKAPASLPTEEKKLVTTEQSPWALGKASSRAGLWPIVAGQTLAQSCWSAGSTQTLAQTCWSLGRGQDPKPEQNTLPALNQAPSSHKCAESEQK", "experiment": "Selectivity interaction (Methyltransferase screen (Scintillation proximity assays)) EUB0000255b NSD1", "conditions": "at 1 µM"}, "[5]": {"biological_target": "RAC-gamma serine/threonine-protein kinase (Homo sapiens, UniProt Q9Y243)", "sequence (Q9Y243 whole entry)": "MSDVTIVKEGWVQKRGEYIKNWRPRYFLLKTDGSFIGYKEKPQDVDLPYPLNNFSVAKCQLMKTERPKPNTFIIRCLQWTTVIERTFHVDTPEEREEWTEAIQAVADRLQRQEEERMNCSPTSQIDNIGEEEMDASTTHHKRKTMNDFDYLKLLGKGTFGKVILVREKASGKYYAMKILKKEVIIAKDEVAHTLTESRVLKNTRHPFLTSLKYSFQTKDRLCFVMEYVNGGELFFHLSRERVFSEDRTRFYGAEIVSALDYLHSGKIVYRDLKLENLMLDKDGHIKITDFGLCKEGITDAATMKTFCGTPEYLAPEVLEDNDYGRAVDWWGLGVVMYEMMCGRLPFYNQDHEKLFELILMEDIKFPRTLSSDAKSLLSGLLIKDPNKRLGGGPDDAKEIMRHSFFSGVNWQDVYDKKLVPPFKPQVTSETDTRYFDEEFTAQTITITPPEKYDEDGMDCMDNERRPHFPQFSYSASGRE", "experiment": "Selectivity interaction (KinomeScan (DiscoverX)) EUB0000595a AKT3", "conditions": "at 10 µM"}, "[6]": {"biological_target": "Tyrosine-protein kinase ABL1 (Homo sapiens, UniProt P00519)", "experiment": "Selectivity interaction (KinomeScan (DiscoverX)) EUB0000045b ABL1", "conditions": "at 10 µM"}, "[7]": {"biological_target": "Cyclin-dependent kinase 3 (Homo sapiens) (UniProt Q00526)", "sequence (Q00526 whole entry, looked up)": "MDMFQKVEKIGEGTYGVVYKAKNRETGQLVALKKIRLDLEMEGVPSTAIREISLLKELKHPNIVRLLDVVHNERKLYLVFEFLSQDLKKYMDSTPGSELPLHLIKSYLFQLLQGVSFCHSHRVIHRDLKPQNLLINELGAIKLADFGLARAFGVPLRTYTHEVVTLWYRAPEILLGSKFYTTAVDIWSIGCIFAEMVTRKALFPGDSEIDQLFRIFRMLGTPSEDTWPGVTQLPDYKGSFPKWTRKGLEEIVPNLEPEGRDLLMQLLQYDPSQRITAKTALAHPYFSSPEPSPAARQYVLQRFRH", "experiment": "Selectivity interaction (KinomeScan (DiscoverX)) EUB0000618a CDK3", "conditions": "at 10 µM"}},
  "data": [
    {"smiles": "Cn1cc(-n2cnc3c(NCc4nc5cc(Cl)c(Cl)cc5[nH]4)nc(N4CCOCC4)nc32)cn1", "values": [
      {"measurement": "% of inhibition", "setting": "[1]", "result": -80.6, "unit": "%"}
    ]},
    {"smiles": "CNC(=O)Nc1ccc(-c2nc(N3CC4CCC(C3)O4)c3cnn(C4CCC5(CC4)OCCO5)c3n2)cc1", "values": [
      {"measurement": "% of control", "setting": "[2]", "result": 100, "unit": "%"}
    ]},
    {"smiles": "CC[C@@H]1[C@H](F)C(=O)N[C@@H]1COc1nccc2cc(C(N)=O)c(OC)cc12", "note": "[ZIMLOVISERTIB]", "values": [
      {"measurement": "% of inhibition", "setting": "[3]; at 0.01 µM", "result": 17.1, "unit": "%"},
      {"measurement": "% of inhibition", "setting": "[3]; at 0.04 µM", "result": 2, "unit": "%"},
      {"measurement": "% of inhibition", "setting": "[3]; at 0.2 µM", "result": -6.6, "unit": "%"},
      {"measurement": "% of inhibition", "setting": "[3]; at 1 µM", "result": -12.9, "unit": "%"},
      {"measurement": "% of inhibition", "setting": "[3]; at 5 µM", "result": 16.2, "unit": "%"}
    ]},
    {"smiles": "COCCN1CCC(c2cc(CN(C)C(=O)c3cccc(Oc4ccccc4)c3)ccn2)CC1", "values": [
      {"measurement": "% activity", "setting": "[4]", "result": 90, "unit": "%"}
    ]},
    {"smiles": "COCC(=O)NC/C=C/c1ccc2ncnc(Nc3ccc(Oc4ccc(C)nc4)c(C)c3)c2c1", "note": "[CP-724714]", "values": [
      {"measurement": "% of control", "setting": "[5]", "result": 100, "unit": "%"}
    ]},
    {"smiles": "C=CC(=O)Nc1cc(-n2c(=O)ccc3cnc4ccc(-c5ccc(NS(C)(=O)=O)cc5)cc4c32)ccc1C", "values": [
      {"measurement": "% of control", "setting": "[6]", "result": 79, "unit": "%"}
    ]},
    {"smiles": "O[C@H]1CC[C@H](Nc2ncc3nc(Nc4c(F)cc(F)cc4F)n([C@H]4CCOC4)c3n2)CC1", "values": [
      {"measurement": "% of control", "setting": "[7]", "result": 100, "unit": "%"}
    ]}
  ]
}
